Columns and labels:
[1] = In vivo metabolite identification, pooled rat plasma (Q-TOF LC-MS/MS); conditions: i.v. SP-8356 20 mg/kg; for AUClast (%): % versus total AUClast of parent and all detected metabolites; for AUClast (AR∙h) × 10^2: AR = peak area ratio versus internal standard; for Tmax: male, SD, iv, time of highest AR
Experimental: (§1) Plasma samples from the i.v. administrations described in Section 4.2 and Section 4.3 were used in this study. Plasma samples pooled at each time point were subjected to sample preparation as described in Section 4.2. The prepared samples were analyzed by Agilent 6530 Q-TOF LC-MS/MS system equipped with dual AJS ESI ion source and Agilent 1200 series HPLC system as described below.
(§2) Chromatographic separation was achieved on an Agilent Eclipse C18 column (2.1 mm × 100 mm, 3.5 µm) by a gradient elution with a mobile phase consisting of 0.1 vol.% formic acid in water (A) and 0.1 vol.% formic acid in acetonitrile (B) at 50 °C: starting with 5 vol.% B for 2 min, ramping to 95 vol.% B over 1 min, maintaining for 3 min. The mobile phase flow rate was kept at 0.45 mL/min throughout the run. The sample injection volume was 5 µL. Ion source parameters were set as follows: capillary voltage, 3500 V; drying gas, 12 L/min and 300 °C; nebulizer gas, 30 psi; sheath gas, 12 L/min and 300 °C. Mass spectra were acquired in negative ion auto MS/MS mode (F, 135 V; CE, 25 eV) with full scan range of m/z (100–1000) and mass scan rate of 8 spectra/s. Metabolites were identified using Agilent MassHunter Metabolite ID software (version B.04.00) (Santa Clara, CA, USA). Chromatograms and mass spectra of the parent and identified metabolites were extracted using Agilent MassHunter Qualitative Analysis software (version B.05.00) (Santa Clara, CA, USA).

[2] = In vivo metabolite identification, pooled dog plasma (Q-TOF LC-MS/MS); conditions: i.v. SP-8356 50 mg/kg; for AUClast (%): % versus total AUClast of parent and all detected metabolites; for AUClast (AR∙h) × 10^2: AR = peak area ratio versus internal standard; for Tmax: male, Beagle, iv, time of highest AR
Experimental: as §1, §2

[3] = In vivo metabolite identification, pooled rat urine; conditions: rat pooled urine 0–24 h, single i.v. dose of SP-8356
Experimental: Rat urine samples were collected from the animal studies approved by the IACUC of Korea University (Approval No.: KUIACUC-2017-124; Approval date: Jul. 29, 2017). SP-8356 dissolved in DMA/Cremophor EL/saline (5/10/85 vol.%) was dosed i.v. at 10 mg/kg (n = 5/dose group) to male SD rats (8 weeks old; (255–275) g; Koatech Inc., Gyeonggi, Republic of Korea) housed individually in metabolic cages. Urine samples were collected for ((0–4), (4–8) and (8–24)) h. Pooled urine samples were mixed with equal volume of acetonitrile containing HSDH (1 μg/mL) as IS, followed by filtration with a syringeless filter device (Mini-UniPrep™, PTFE filter media with polypropylene housing, 0.45 µm). The filtrate was analyzed by Agilent 6530 Q-TOF LC-MS/MS system equipped with dual AJS ESI ion source and Agilent 1200 series HPLC system, as follows.
Chromatographic separation was achieved on an Agilent Eclipse C18 column (2.1 mm × 100 mm, 3.5 µm) by a gradient elution with a mobile phase consisting of 0.1 vol.% formic acid in water (A) and 0.1 vol.% formic acid in acetonitrile (B) at 50 °C: starting with 5 vol.% B for 2 min, ramping to 95 vol.% B over 1 min, maintaining for 3 min. The mobile phase flow rate was kept at 0.45 mL/min throughout the run. The sample injection volume was 5 µL. […]

Structure (SMILES) | AUClast (%) [1] [%] | AUClast (AR∙h) × 10^2 [1] | Tmax [1] [min] | AUClast (%) [2] [%] | AUClast (AR∙h) × 10^2 [2] | Tmax [2] [min] | metabolites detected in urine [3]
COc1cc(C=CC2=CC(=O)C3CC2C3(C)C)cc(OC2OC(C(=O)O)C(O)C(O)C2O)c1OC1OC(C(=O)O)C(O)C(O)C1O (stereo not shown) [M5] | 0.84 | 1.14 (AR∙h) × 10^2 | 15 | 3.05 | 120.5 (AR∙h) × 10^2 | 60 | detected
CC1(C)[C@@H]2C[C@H]1C(/C=C/c1cc(O)c(O)c(O)c1)=CC2=O [M3] | 0.40 | 0.55 (AR∙h) × 10^2 | 1.02 | 0.07 | 2.7 (AR∙h) × 10^2 | 4.98 | 

Reference: PMC7221793, “Metabolism and Pharmacokinetics of SP-8356, a Novel (1S)-(−)-Verbenone Derivative, in Rats and Dogs and Its Implications in Humans” (Molecules, 2020)
